Results reported in ChEMBL document CHEMBL1129101 (Bioorg Med Chem Lett, 1996).

Columns and labels:
Histamine H2 receptor = Histamine H2 receptor (Rattus norvegicus, UniProt P25102); assay: Antagonistic activity by inhibition histamine H2 receptor from rats.; type: functional; settings: read-out: pA2 (converted)
[1] = target: Cholecystokinin receptor (Mus musculus) (UniProt O08786+P56481); assay: Ratio of IC50(gastrin) to IC50(CCK-A); type: protein assay
[2] = target: T1, Gastrin/cholecystokinin type B receptor (Mus musculus, UniProt P56481); assay: Inhibitory activity against Cholecystokinin type B receptor
T1 sequence (P56481 whole entry): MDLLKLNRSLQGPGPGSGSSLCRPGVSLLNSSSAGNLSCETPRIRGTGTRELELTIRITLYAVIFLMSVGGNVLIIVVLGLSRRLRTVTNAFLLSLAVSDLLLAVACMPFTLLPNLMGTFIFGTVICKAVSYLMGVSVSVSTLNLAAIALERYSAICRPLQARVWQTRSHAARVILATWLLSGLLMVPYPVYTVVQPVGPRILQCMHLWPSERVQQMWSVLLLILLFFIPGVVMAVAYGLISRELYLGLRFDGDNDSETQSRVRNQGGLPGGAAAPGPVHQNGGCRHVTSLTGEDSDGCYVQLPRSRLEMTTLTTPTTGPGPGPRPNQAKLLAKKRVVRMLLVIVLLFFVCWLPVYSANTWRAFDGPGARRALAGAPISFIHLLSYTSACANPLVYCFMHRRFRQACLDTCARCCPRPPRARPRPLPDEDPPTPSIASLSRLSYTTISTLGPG

[3] = target: T2, Cholecystokinin receptor type A (Mus musculus, UniProt O08786); assay: Inhibitory activity against Cholecystokinin type A receptor
T2 sequence (O08786 whole entry): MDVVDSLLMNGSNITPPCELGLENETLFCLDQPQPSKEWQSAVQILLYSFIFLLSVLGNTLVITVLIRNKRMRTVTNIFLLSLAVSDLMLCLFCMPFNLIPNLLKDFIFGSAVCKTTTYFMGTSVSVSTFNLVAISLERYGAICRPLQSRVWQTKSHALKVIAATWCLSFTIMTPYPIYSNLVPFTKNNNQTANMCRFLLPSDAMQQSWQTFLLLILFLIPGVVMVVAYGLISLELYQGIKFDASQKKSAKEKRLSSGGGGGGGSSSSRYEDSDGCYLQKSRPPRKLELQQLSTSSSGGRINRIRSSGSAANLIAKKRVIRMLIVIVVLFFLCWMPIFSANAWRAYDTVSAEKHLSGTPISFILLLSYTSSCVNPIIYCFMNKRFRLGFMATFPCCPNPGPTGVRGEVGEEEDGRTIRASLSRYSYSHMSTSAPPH

Histamine H2 receptor, sequence (P25102 whole entry): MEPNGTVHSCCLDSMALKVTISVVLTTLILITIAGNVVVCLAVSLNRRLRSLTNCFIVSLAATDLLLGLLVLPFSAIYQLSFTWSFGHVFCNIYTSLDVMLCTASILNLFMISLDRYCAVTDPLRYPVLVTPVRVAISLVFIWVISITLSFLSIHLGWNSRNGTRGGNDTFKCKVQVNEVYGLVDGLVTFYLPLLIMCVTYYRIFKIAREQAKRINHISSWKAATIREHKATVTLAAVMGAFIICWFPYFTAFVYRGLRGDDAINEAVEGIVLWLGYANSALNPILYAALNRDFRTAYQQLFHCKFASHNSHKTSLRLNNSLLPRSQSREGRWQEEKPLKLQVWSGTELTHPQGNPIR

| Structure (SMILES) | Kb (Histamine H2 receptor) [nM] | Ratio [1] | IC50 [2] [nM] | IC50 [3] [nM] |
| --- | --- | --- | --- | --- |
| CC(C)(C)OC(=O)NCCCC(=O)NCCSCc1csc(N=C(N)N)n1 | 50.1 |  |  |  |
| CN1C(=O)[C@H](NC(=O)Nc2cccc(COC(=O)NCCCC(=O)NCCCOc3cccc(CN4CCCCC4)c3)c2)N=C(c2ccccc2)c2ccccc21 | 251 | 138 | 64 | 3600 |
| Cc1cccc(NC(=O)N[C@@H]2N=C(c3ccccc3)c3ccccc3N(CCOC(=O)NCCCC(=O)NCCSCc3csc(N=C(N)N)n3)C2=O)c1 | 3160 | 289 | 930 | 4400 |
| CN1C(=O)[C@H](NC(=O)Nc2cccc(COC(=O)NCCC(=O)NCCCOc3cccc(CN4CCCCC4)c3)c2)N=C(c2ccccc2)c2ccccc21 | 316 | 9 | 160 | 310 |
| CC(C)(C)OC(=O)NCCCC(=O)NCCCOc1cccc(CN2CCCCC2)c1 | 15.8 |  |  |  |
| CN1C(=O)[C@H](NC(=O)Nc2cccc(CCOC(=O)NCCCC(=O)NCCCOc3cccc(CN4CCCCC4)c3)c2)N=C(c2ccccc2)c2ccccc21 | 398 | 217 | 180 | 5000 |
| Cc1cccc(NC(=O)N[C@@H]2N=C(c3cccc(OC(=O)NCCCC(=O)NCCCOc4cccc(CN5CCCCC5)c4)c3)c3ccccc3N(C)C2=O)c1 | 501 | 17 | 460 | 3800 |
| CN1C(=O)[C@H](NC(=O)Nc2cccc(COC(=O)NCCNC(=O)CC(=O)NCCCOc3cccc(CN4CCCCC4)c3)c2)N=C(c2ccccc2)c2ccccc21 | 158 | 432 | 103 | 8200 |

Next, values leading:

| Kb (Histamine H2 receptor) [nM] | Ratio [1] | IC50 [2] [nM] | IC50 [3] [nM] | Structure (SMILES) |
| --- | --- | --- | --- | --- |
| 1000 | 34 | 4000 | 4600 | Cc1cccc(NC(=O)N[C@@H]2N=C(c3ccccc3)c3ccccc3N(CCOC(=O)NCCCC(=O)NCCCOc3cccc(CN4CCCCC4)c3)C2=O)c1 |
| 1260 | 156 | 94 | 4200 | CN1C(=O)[C@H](NC(=O)Nc2cccc(CCOC(=O)NCCC(=O)NCCCOc3cccc(CN4CCCCC4)c3)c2)N=C(c2ccccc2)c2ccccc21 |
| 631 | 106 | 45 | 740 | CN1C(=O)[C@H](NC(=O)Nc2cccc(COC(=O)NCCN3CCN(C(=O)CNCCCOc4cccc(CN5CCCCC5)c4)CC3)c2)N=C(c2ccccc2)c2ccccc21 |
| 794 | 35 | 300 | 1300 | CN1C(=O)[C@H](NC(=O)Nc2cccc(CCOC(=O)NCCCC(=O)NCCSCc3csc(N=C(N)N)n3)c2)N=C(c2ccccc2)c2ccccc21 |
| 316 | 183 | 400 | 1650 | CN1C(=O)[C@H](NC(=O)Nc2cccc(COC(=O)NCCCN3CCN(C(=O)CNCCCOc4cccc(CN5CCCCC5)c4)CC3)c2)N=C(c2ccccc2)c2ccccc21 |
| 794 | 555 | 200 | 6100 | CN1C(=O)[C@H](NC(=O)Nc2cccc(COC(=O)NCC(=O)NCCCOc3cccc(CN4CCCCC4)c3)c2)N=C(c2ccccc2)c2ccccc21 |
